Source: paper PMC8693998 (Journal of natural products, 2021)
Entries after “also recorded” stand apart in the source; their conditions may differ.

Key:
[1] = target: human μ-opioid receptor (MOR); settings: read-out: μ-opioid, Ki ± SEM; cited from earlier work
[2] = system: human μ-opioid receptor (MOR); settings: cited from earlier work
[3] = system: hot plate latency in catheterized rats; assay: Rat hot plate antinociception assay; format: in vivo, Sprague–Dawley rats
human μ-opioid receptor = human μ-opioid receptor (Homo sapiens, UniProt P35372); format: binding
Sequence of human μ-opioid receptor (P35372 whole entry): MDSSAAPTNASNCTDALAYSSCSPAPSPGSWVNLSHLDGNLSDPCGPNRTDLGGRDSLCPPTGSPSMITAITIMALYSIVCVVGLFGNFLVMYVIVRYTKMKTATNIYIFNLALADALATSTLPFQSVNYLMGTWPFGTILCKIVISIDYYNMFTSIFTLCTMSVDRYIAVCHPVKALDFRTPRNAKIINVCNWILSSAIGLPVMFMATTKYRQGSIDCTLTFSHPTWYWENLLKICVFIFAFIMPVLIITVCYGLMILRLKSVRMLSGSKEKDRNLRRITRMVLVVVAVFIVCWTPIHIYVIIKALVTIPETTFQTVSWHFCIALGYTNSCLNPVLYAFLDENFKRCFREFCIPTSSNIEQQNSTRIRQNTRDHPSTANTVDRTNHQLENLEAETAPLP

[4] = system: human μ-opioid receptor (MOR); assay: Human μ-opioid receptor binding affinity quoted from the literature; settings: fold lower affinity than found in the present study

## CC[C@@H]1CN2CC[C@@]3(O)C(=Nc4cccc(OC)c43)[C@@H]2C[C@@H]1/C(=C\OC)C(=O)OC [7-hydroxymitragynine (11), 7-hydroxymitragynine, reference compound]
[1]
  Ki: 7.2 nM
[2]
  Type of activity at the human μ-opioid receptor: partial agonists

## CC[C@@H]1CN2CC[C@@]3(C(=O)Nc4ccccc43)[C@@H]2C[C@@H]1/C(=C\OC)C(=O)OC [corynoxine (1), corynoxine]
[3]; rat hot plate, 0.1 mg/kg (i.v.) naltrexone after cumulative doses, 0.1 mg/kg
  Reversal of antinociception by naltrexone: fully reversed; also recorded: antagonized by naltrexone
[3]; rats, nociceptive hot plate assay, fold more potent than morphine
  Potency relative to morphine in hot plate assay: 1.8 fold

## CC[C@@H]1CN2CCc3c([nH]c4cccc(OC)c34)[C@H]2C[C@@H]1/C(=C\OC)C(=O)OC [speciociliatine (9), speciociliatine]
[2]
  Type of activity at the human μ-opioid receptor: partial agonists

## CC[C@@H]1CN2CCc3c([nH]c4cccc(OC)c34)[C@@H]2C[C@@H]1/C(=C\OC)C(=O)OC [mitragynine (6), mitragynine]
[2]
  Type of activity at the human μ-opioid receptor: partial agonists

## CC[C@@H]1CN2CC[C@]3(C(=O)Nc4cccc(OC)c43)[C@@H]2C[C@@H]1/C(=C\OC)C(=O)OC [mitragynine oxindole B (4), mitragynine oxindole B]
Human μ-opioid receptor
  Loss of hMOR affinity relative to corynoxine B (2): 16 fold

## CC[C@@H]1CN2CC[C@]3(C(=O)Nc4ccccc43)[C@@H]2C[C@@H]1/C(=C\OC)C(=O)OC [corynoxine B (2), corynoxine B]
Human μ-opioid receptor; human μ-opioid receptor, […]
  Loss of hMOR affinity relative to corynoxine (1): about 6 times
[4]
  μ-opioid affinity in a recent study relative to the present study: approximately 15 fold
